Values of other authors, collected in patent US20160081937A1, “TABLET WITH INCREASED DRUG LOAD OF ODANACATIB” (SANDOZ AG, priority 2013, published 2016).

Columns and labels:
[1] = crystalline odanacatib
[2] = in vivo

Q: Which results are given for `CC(C)(F)C[C@H](N[C@@H](c1ccc(-c2ccc(S(C)(=O)=O)cc2)cc1)C(F)(F)F)C(=O)NC1(C#N)CC1` [Odanacatib, odanacatib]?
A: aqueous solubility [1]: low; oral bioavailability [2]: highly dependable on vehicle, dosage and sample preparation; lumbar spine, hip and femoral neck BMD (patients treated once weekly with 20-50 mg): increases; BMD at the same sites (lumbar spine, hip, femoral neck) (patients treated with low doses): decreases
